Measurements as given in publication PMC10132538, “Regulation of the two-pore domain potassium channel, THIK-1 and THIK-2, by G protein coupled receptors” (PLOS ONE, 2023).
Each block holds one molecule with its values, some of them ahead of it.

How the values were obtained:
ΔN-THIK-2 channel = target: T1, ΔN-THIK-2 channel (Mus musculus, UniProt F6UVE5); test: Effect of DAG analogue on ΔN-THIK-2 channel current (I10th/I0) in CHO-K1 cells; assay type: cell-based; conditions: 10 and 30 μM
T1 construct: expressed in transfected cells; host or cells: CHO-K1
T1 sequence (F6UVE5 with tags, fused parts or gaps): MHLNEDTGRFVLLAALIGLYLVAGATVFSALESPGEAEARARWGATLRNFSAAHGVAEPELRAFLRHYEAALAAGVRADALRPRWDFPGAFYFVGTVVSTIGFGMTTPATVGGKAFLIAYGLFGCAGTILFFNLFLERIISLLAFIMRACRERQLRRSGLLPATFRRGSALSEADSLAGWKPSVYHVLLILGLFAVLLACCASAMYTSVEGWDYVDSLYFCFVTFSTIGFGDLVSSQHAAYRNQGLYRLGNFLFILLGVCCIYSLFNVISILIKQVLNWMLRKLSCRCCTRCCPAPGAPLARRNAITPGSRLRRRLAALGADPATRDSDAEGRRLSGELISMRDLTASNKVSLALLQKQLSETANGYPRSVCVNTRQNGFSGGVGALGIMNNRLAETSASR
From the text: (§1) Pertussis toxin (PTX) was purchased from Wako (Osaka, Japan).
Fig 7 Effect of C-Ala mutation or OAG on ΔN-THIK-2 channel. (A) Current-voltage relationships before and after stimulation of mGlu2. […]. (B) Effects of the mGlu2 activation on the ΔN-THIK-2 and C-Ala mutants. […]. Mean and S.D. are shown as bars (n = 11–12). (C) Current-voltage relationships before and after application of OAG. The current-voltage relationships before and 50 sec after application of OAG are shown (black and red lines, respectively). The tested concentration of OAG was 10 μM (left) and 30 μM (right). (D) Effects of OAG on the ΔN-THIK-2 channel. The ratio (I10th/I0) are not different between OAG applied group (filled circles) and vehicle applied group (open circles). Mean and S.D. are shown as bars (n = 7–11). **: 0.001<p≤ 0.01, n.s.: p> 0.05.

THIK-1 channel [1] = target: T2, THIK-1 channel (Mus musculus, UniProt Q8R1P5); test: Effect of DAG analogue on THIK-1 channel current (I10th/I0); assay type: cell-based; conditions: 50 sec after application
T2 construct: expressed in transfected cells; host or cells: HEK293T
T2 sequence (Q8R1P5 1-405): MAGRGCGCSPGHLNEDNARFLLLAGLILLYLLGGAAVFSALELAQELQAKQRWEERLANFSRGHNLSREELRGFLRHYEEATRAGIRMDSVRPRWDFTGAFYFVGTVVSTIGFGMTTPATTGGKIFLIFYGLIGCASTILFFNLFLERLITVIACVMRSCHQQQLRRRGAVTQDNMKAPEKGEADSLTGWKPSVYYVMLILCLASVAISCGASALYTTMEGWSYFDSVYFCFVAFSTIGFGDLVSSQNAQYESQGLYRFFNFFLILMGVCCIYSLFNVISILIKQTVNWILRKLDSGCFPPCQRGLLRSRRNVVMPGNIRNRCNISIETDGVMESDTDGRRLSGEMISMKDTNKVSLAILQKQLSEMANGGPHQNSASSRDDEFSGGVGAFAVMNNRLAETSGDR
From the text: as §1
Fig 5 Effects of OAG on THIK-1 channel current. (A) Current and membrane potential relationships before and after application of OAG. Ramp pulses were applied ever 5 sec before and after application of OAG. The current and membrane potential relationships before (black) and 50 sec after application of the indicated concentration of OAG (red) are shown. (B) Effects of OAG on THIK-1 channel. Circles indicate the ratio of the current amplitudes after application of OAG or DMSO to the amplitudes before application of them (I10th/I0). Mean and S.D. are shown as bars (n = 8–12). n.s.: p> 0.05.

mGlu2 = target: T3, mGlu2 (Rattus norvegicus, UniProt P31421); test: mGlu2-induced increase of THIK-1 channel current, whole cell patch clamp in HEK293T cells; assay type: cell-based; conditions: concentration response of THIK-1 current increase
T3 construct: expressed in transfected cells; host or cells: HEK293T
T3 sequence (P31421 19-872): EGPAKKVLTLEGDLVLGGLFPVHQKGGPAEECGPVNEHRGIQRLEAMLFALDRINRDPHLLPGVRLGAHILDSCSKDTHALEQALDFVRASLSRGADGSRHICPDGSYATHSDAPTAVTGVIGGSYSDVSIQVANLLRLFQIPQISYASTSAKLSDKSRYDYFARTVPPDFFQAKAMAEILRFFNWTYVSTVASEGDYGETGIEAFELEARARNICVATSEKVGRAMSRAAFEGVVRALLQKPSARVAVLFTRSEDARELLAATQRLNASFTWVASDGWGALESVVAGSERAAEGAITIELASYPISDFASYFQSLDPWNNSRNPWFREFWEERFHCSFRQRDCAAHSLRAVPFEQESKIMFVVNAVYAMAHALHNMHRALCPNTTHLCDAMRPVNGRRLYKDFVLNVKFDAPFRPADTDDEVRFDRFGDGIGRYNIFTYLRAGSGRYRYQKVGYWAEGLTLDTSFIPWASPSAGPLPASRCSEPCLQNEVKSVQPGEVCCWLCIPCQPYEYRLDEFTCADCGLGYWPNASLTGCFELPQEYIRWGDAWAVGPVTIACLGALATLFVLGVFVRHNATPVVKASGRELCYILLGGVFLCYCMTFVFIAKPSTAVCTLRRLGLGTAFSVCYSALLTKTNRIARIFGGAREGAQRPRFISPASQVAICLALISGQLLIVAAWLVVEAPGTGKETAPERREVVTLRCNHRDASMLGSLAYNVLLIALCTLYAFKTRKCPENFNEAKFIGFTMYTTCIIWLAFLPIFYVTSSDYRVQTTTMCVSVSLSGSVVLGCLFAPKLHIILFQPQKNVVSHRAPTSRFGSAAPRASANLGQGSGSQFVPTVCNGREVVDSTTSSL
From the text: (§2) Coding region of mGu2 (M1-P840) was amplified by conventional PCR with designed primers and the resulting product was subcloned into pEYFP-N1 vector at the BglII and EcoRI sites. The cDNAs for mouse THIK-2 channel and dimeric THIK channels were subcloned into pcDNA3.1(-) vector. To increase the surface membrane expression of the THIK-2 channel, 29 residues (Ser2-Ser30) were removed (ΔN-THIK-2). […] Ci-VSP-IRES-GFP vector was kindly gifted by Dr. Y. Okamura (Osaka University, Osaka, Japan). HEK293T cells or CHO-K1 cells were seeded on glasses and transfected with the plasmid DNAs for THIK channels, receptors and a transfection marker of yellow fluorescent protein (YFP). Electrophysiological experiments were performed 24–72 h after the transfection. […] Pertussis toxin (PTX) was purchased from Wako (Osaka, Japan). […] All reagents were dissolved at high concentration and stored at -20 °C as the stock solutions. The stock reagent solution was diluted at concentrations for the electrophysiological experiments. […]
(§3) The amplitude of the THIK-1 channel current at 0 mV was measured from every trace induced by the ramp pulse protocol to minimize the fraction of non-selective cationic leak current. […] The effects of GPCRs on the THIK-1 channel were evaluated as the ratio of the current amplitude after the agonist application to I0 (Iagonist/I0). […]

[2] = system: endogenously expressed channels in HEK293T cells; test: Effect of receptor stimulation on the endogenous current in HEK293T cells without THIK-1; assay type: cell-based
From the text: The amplitude of the current increase at the 15th trace (ΔI15th) after the application of GABA or oxo-M were normalized to that at the 5th traces (ΔI5th) with or without additional activation of A2aR (ΔI15th/ΔI5th).
The current density at 0 mV (I0) in HEK293T cell transfected with indicated receptors and the effects of the receptor stimulation are shown as Mean and S.D.

THIK-1 channel [3] = test: Basal current (I0) density of THIK-1 channel at 0 mV in HEK293T cells; assay type: cell-based; conditions: 0 mV, before agonist
From the text: (§4) Coding region of mGu2 (M1-P840) was amplified by conventional PCR with designed primers and the resulting product was subcloned into pEYFP-N1 vector at the BglII and EcoRI sites. The cDNAs for mouse THIK-2 channel and dimeric THIK channels were subcloned into pcDNA3.1(-) vector. To increase the surface membrane expression of the THIK-2 channel, 29 residues (Ser2-Ser30) were removed (ΔN-THIK-2). […] Ci-VSP-IRES-GFP vector was kindly gifted by Dr. Y. Okamura (Osaka University, Osaka, Japan). HEK293T cells or CHO-K1 cells were seeded on glasses and transfected with the plasmid DNAs for THIK channels, receptors and a transfection marker of yellow fluorescent protein (YFP). Electrophysiological experiments were performed 24–72 h after the transfection. […] Pertussis toxin (PTX) was purchased from Wako (Osaka, Japan). […] All reagents were dissolved at high concentration and stored at -20 °C as the stock solutions. The stock reagent solution was diluted at concentrations for the electrophysiological experiments. PTX was solved in the culture medium (final concentration, 300 ng/mL) and cells were incubated in it for more than 16 h. U73122 or U73343 (final concentration, 2 μM each) was dissolved in Hanks’ Balanced Salt Solution (HBSS, Invitrogen, Carlsbad, CA, USA) supplemented with 1 mM Ca^2+ and 0.3 mM Mg^2+. Cells were incubated in HBSS with U73122 or U73343 for 10 min at room temperature before the whole cell current recording.
Composition of bath solution was (in mM) 140 NaCl, 4 KCl, 1 CaCl2, 0.3 MgCl2, 10 HEPES (pH 7.4 adjusted with NaOH). The pipette solution for whole cell patch clamp experiments contained (mM) 130 KCl, 5 Na2-ATP, 3 EGTA, 0.1 CaCl2, 10 HEPES, 4 MgCl2, (pH 7.3 adjusted with KOH). GTP (0.3 mM) was supplemented in the pipette solution. Once the whole cell configuration was established, the cell was held at -80mV and ramp pulses (-120mV to +40mV for 0.4 sec) were applied every 5 sec. Various concentrations of the agonists were applied using a fast perfusion system (VC77SP, Warner Instruments, Hamden, CT, USA). The PKC inhibitor chelerythrine was included in the pipette solution.
The amplitude of the THIK-1 channel current at 0 mV was measured from every trace induced by the ramp pulse protocol to minimize the fraction of non-selective cationic leak current. The current amplitude before the agonist application was set as the basal current amplitude (I0). The effects of GPCRs on the THIK-1 channel were evaluated as the ratio of the current amplitude after the agonist application to I0 (Iagonist/I0). The EC50 values were estimated by fitting the concentration response curve to a Hill equation (Origin2016; OriginLab, Northampton, MA, USA). […] The effects of A2aR on the Gi/o-R-induced current increase of the THIK-1 channel was estimated as follows. […] All data are shown as means and S.D. The statistical significance between two or more than two groups was estimated by unpaired Student’s t-test or by a one-way analysis of variance (ANOVA) followed by Tukey’s test, respectively. […] Values of p≤ 0.05 were considered as statistically significant (***:p≤0.001, **:0.001<p≤0.01, *:0.01<p≤0.05, n.s.:p>0.05).

[4] = target: T4, mGlu2-YFP / ΔN-THIK-2 channel (Rattus norvegicus, UniProt P31421); test: mGlu2-YFP-induced increase of ΔN-THIK-2 channel current in CHO-K1 cells; assay type: cell-based, mouse; conditions: PTX treated cells, glutamate 200 μM
T4 construct: Coding region of mGu2 (M1-P840) was amplified by conventional PCR; expressed in transfected cells; host or cells: CHO-K1
T4 sequence (P31421 19-840, stated change not applied): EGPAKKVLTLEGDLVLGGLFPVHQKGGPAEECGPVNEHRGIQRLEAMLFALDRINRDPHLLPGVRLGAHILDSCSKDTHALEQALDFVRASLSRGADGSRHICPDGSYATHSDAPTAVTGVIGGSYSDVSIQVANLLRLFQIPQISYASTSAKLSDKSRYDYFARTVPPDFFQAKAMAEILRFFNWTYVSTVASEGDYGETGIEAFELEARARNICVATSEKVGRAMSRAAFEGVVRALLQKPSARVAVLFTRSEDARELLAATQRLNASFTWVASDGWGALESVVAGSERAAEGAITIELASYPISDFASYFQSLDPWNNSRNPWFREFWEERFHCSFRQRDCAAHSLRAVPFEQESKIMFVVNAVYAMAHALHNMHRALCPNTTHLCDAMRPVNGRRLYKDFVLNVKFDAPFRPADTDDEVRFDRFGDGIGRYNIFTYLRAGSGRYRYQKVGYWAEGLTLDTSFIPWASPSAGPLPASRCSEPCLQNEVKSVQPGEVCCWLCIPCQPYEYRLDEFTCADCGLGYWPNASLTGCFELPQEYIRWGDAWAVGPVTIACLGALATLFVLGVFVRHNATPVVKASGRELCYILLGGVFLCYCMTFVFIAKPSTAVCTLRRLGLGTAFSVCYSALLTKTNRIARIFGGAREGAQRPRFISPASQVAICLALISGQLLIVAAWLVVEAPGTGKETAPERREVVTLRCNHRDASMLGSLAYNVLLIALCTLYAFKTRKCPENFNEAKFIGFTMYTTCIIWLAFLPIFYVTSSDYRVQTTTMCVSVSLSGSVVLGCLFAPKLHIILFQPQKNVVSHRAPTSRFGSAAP
From the text: as §4, with “Cells were incubated in HBSS with U73122 or U73343 for 10 min at room temperature before the whole cell current recording.” left out

GABABR = target: T5, GABABR (Homo sapiens, UniProt Q9UBS5); test: GABABR-induced increase of THIK-1 channel current, whole cell patch clamp in HEK293T cells; assay type: cell-based; conditions: PTX 300 ng/mL, more than 16 h
T5 construct: expressed in transfected cells; host or cells: HEK293T
T5 sequence (Q9UBS5 15-961 limits assumed): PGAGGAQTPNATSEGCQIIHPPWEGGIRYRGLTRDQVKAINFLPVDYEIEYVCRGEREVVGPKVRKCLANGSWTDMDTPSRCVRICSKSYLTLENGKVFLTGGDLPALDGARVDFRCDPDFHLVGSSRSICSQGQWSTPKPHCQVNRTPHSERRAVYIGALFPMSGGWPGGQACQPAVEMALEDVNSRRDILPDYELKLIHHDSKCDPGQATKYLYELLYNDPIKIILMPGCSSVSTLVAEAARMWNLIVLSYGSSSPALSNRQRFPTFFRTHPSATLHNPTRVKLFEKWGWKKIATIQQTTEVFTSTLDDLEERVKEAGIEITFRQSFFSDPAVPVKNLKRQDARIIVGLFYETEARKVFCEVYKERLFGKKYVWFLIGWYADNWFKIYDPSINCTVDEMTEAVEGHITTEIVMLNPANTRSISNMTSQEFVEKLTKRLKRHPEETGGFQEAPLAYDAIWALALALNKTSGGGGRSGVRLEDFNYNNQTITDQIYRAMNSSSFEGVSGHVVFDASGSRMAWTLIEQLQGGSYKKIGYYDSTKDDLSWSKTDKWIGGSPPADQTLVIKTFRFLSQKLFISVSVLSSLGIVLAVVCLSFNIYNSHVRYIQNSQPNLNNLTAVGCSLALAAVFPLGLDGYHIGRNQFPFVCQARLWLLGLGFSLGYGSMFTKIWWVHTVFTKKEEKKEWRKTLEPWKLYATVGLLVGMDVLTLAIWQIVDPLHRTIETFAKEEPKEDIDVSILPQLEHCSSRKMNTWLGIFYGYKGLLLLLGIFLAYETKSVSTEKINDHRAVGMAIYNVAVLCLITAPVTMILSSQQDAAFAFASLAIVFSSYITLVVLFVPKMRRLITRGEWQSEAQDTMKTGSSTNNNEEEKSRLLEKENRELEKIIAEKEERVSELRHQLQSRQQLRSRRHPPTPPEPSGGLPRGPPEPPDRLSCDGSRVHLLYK
T5 sequence (O75899 42-941 partner): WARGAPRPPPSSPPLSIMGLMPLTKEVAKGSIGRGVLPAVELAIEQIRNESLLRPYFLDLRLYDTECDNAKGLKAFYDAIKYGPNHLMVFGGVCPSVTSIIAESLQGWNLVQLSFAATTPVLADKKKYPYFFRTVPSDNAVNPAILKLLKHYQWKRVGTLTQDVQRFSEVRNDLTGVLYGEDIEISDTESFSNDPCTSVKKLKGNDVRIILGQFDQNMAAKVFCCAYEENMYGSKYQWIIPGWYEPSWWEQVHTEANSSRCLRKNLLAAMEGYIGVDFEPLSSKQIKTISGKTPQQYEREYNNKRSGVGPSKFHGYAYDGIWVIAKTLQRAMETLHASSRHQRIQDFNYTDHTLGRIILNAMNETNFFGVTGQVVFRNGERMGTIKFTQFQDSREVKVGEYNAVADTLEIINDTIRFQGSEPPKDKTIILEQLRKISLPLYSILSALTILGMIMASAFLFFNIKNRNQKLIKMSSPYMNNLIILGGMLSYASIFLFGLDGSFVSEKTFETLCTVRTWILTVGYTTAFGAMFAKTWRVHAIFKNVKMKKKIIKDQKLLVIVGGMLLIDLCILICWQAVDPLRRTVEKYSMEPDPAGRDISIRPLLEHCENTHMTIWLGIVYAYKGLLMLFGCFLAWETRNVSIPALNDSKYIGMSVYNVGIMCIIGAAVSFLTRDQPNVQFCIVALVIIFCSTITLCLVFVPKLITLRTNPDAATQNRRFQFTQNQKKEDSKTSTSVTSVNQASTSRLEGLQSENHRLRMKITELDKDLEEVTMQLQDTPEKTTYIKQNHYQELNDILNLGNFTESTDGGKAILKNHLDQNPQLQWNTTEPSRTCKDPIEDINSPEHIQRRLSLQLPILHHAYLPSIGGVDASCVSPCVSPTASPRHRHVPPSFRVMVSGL
From the text: as §2, §3

- current amplitude of ΔN-THIK-2 channel (ΔN-THIK-2 channel): did not increase the current amplitude
- increase in the amplitude of the THIK-1 channel current (I10th/I0) versus vehicle (DMSO) (THIK-1 channel [1]): not significantly different
Molecule: CCCCCCCC/C=C\CCCCCCCC(=O)OC[C@H](CO)OC(C)=O [OAG, 1-oleoyle-2-acetyl-sn-glycerol]

Molecule: N[C@@H](CCC(=O)O)C(=O)O [glutamate, L-glutamate]
- n; Hill coefficient (mGlu2): 1.19 ± 0.65
- Effect of agonist (Iagonist/I0) ([2]; HEK293T transfected with mGlu1, no THIK-1): 0.98 ± 0.17
- Effect of agonist (Iagonist/I0) ([2]; HEK293T transfected with mGlu2, no THIK-1): 0.92 ± 0.06

Molecule: Pertussis toxin [PTX]
- Basal current (I0) density of THIK-1 channel (THIK-1 channel [3]; THIK-1 + GABABR, + PTX (300 ng/mL)): 170.6 ± 58.2 (7)^n.s. pA/pF
- Basal current (I0) density of THIK-1 channel (THIK-1 channel [3]; THIK-1 + M2R, + PTX (300 ng/mL)): 168.6 ± 141.2 (6)^n.s pA/pF
- Basal current (I0) density of THIK-1 channel (THIK-1 channel [3]; THIK-1 + mGlu2, + PTX (300 ng/mL)): 281.87 ± 148.3 (5)^n.s. pA/pF
- effect of mGlu2-YFP on ΔN-THIK-2 channel after inhibitor treatment [4]: inhibited
- effect of GABA on the THIK-1 channel after inhibitor treatment (GABABR): not observed
